Experimental findings from patent US20020183307A1, “Novel 1,4-benzothiazephine and 1,5-benzothiazepine compounds as inhibitors of apical sodium co-dependent bile acid transport and taurocholate uptake” (priority 2000, published 2002) are described below.

This assay addresses T1, human IBAT (Homo sapiens, UniProt Q12908).
T1 construct: expressed in transfected cells; host or cells: Baby hamster kidney (BHK) cells, H14 clone
T1 sequence (Q12908 1-348): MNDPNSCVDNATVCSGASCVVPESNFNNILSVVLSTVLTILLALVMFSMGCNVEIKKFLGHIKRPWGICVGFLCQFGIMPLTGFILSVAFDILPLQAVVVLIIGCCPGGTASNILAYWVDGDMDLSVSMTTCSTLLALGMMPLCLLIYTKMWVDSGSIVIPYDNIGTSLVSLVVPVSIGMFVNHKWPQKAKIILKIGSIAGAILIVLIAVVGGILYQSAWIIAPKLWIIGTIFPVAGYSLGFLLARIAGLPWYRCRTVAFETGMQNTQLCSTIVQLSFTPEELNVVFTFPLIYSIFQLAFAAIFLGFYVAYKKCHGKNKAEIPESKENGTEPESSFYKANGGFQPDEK
Nature of the assay: In vitro assay of compounds that inhibit IBAT-mediated uptake of [14C]-taurocholate (TC) in H14 cells. Type of assay: cell-based. The protocol:
In Vitro Assay of Compounds That Inhibit IBAT-mediated Uptake of [^14C]-Taurocholate (TC) in H14 Cells
Baby hamster kidney cells (BHK) transfected with the cDNA of human IBAT (Hl4 cells) are seeded in 96 well Top-Count tissue culture plates at 60,000 cells/well for assays run within 24 hours of seeding, 30,000 cells/well for assays run within 48 hours, and 10,000 cells/well for assays run within 72 hours.
On the day of assay, the cell monolayer is gently washed once with […] (Dulbecco's Modified Eagle's medium with 4.5 g/L glucose plus 0.2% (w/v) fatty acid free bovine serum albumin ((FAF)BSA). To each well […] of a two-fold concentrate of test compound in assay buffer is added along with […] of […] [^14C]-taurocholate in assay buffer (final concentration of […] [^14C]-taurocholate).
The cell culture plates are incubated 2 hours at 37° C. prior to gently washing each well twice with […] 4° C. Dulbecco's phosphate-buffered saline (PBS) containing 0.2% (w/v) (FAF)BSA. The wells are then gently washed once with […] 4° C. PBS without (FAF)BSA. To each […] of liquid, scintillation counting fluid is added.
The plates are heat sealed and shaken for 30 minutes at room temperature prior to measuring the amount of radioactivity in each well on a Packard Top-Count instrument.

[1] abbreviates: Table 8, 1,4 and 1,5 benzothiazipines, additional IC50 values.
The mark [2] stands for this setting: Table 7, 1,5-benzothiazepines, 50% inhibitory concentrations by the biological evaluation procedures.

The term IC50 denotes the concentration at which inhibition is half-maximal.

SMILES strings stand for the structures. Bounds are passed on as bounds.

For the compound `CCCCC1(CCCC)CS(=O)(=O)c2ccc(N(C)C)cc2[C@@H](c2ccc(OCC[N+](CC)(CC)CC)cc2)N1` (racemic) [Compound 3, N-[2-[4-[3,3-Dibutyl-7-(dimethylamino)-2,3,4,5-etrahydro-1,1-dioxido-1,4-benzothiazepin-5-yl]phenoxy]ethyl]-N,N,N-triethylaminium Iodide], inhibition under setting [1] was half-maximal at 2090 nM (IC50).

In turn, `CCCCC1(CCCC)CN(c2ccc(OC)cc2)c2cc(N(C)C)ccc2S(=O)(=O)C1` [Compound 6, 3,3-Dibutyl-2,3,4,5-tetrahydro-7-dimethylamino-5-(4′-methoxyphenyl)-1,5-benzothiazepine1,1-dioxide] had a 50% inhibitory concentration (IC50) under setting [1] of 289 nM.

Under setting [2], `CCCCC1(CCCC)CN(c2ccc(OCCN(CC)CC)cc2)c2cc(N(C)C)ccc2S(=O)(=O)C1` [PHA00400670] displayed a concentration for half-maximal inhibition (IC50) of 26400 nM. This counts as double-digit micromolar.

`CCCCC1(CCCC)CS(=O)(=O)c2ccc(N(C)C)cc2[C@@H](c2ccc(OCc3ccc(C[N+]45CCN(CC4)CC5)cc3)cc2)N1` (racemic) [Compound 5]: the IC50 under setting [1] worked out at 22 nM.

In turn, `CCCCC1(CCCC)CN(c2ccc(OCc3ccc(C[N+]45CCN(CC4)CC5)cc3)cc2)c2cc(N(C)C)ccc2S(=O)(=O)C1` [Compound 9, 1-[[4-[[4-[3,3-Dibutyl-7-(dimethylamino)-2,3,4,5-tetrahydro-1,1-dioxido-1,5-benzothiazepin-5-yl]phenoxy]methyl]phenyl]methyl]-4-aza-1-azoniabicyclo[2.2.2]octane Chloride] came in with a 50% inhibitory concentration (IC50) under setting [1] of 30 nM. This IC50 and that of the compound before are within 1.5-fold of each other.

As for `CCCCC1(CCCC)CS(=O)(=O)c2ccc(N(C)C)cc2[C@@H](c2ccc(OCCOCCOCC[N+](CC)(CC)CC)cc2)N1` (racemic) [Compound 4, N-[2-[2-[2-[4-[3,3-Dibutyl-7-(dimethylamino)-2,3,4,5-tetrahydro-1,1-dioxido-1 4-benzothiazepin-5-yl]phenoxy]ethoxy]ethoxy]ethoxy]-N,N,N-triethylaminium Iodide], the IC50 under setting [1] is 74 nM.

Compound `CCCCC1(CCCC)CN(c2ccc(OCCOCCOCC[N+](CC)(CC)CC)cc2)c2cc(N(C)C)ccc2S(=O)(=O)C1` [PHA00400885E] showed an IC50 under setting [2] of 300 nM.

As to `CCCC[C@]1(CC)CS(=O)(=O)c2ccccc2[C@@H](c2ccccc2)N1` [Compound 1], half-maximal inhibition under setting [1] (IC50) was put at 600 nM.

Under setting [1], `CCCCC1(CCCC)CN(c2ccc(OCC[N+](CC)(CC)CC)cc2)c2cc(N(C)C)ccc2S(=O)(=O)C1` [Compound 7] came in with an IC50 of 15100 nM. Compared with the last compound, the IC50 is about 25-fold higher.

`CCCCC1(CCCC)CN(c2ccc(OCC[N+](CC)(CC)CC)cc2)c2cc(N(C)C)ccc2S(=O)(=O)C1` [PHA00400884E]: the concentration for half-maximal inhibition (IC50) under setting [2] was over 1000 nM.

The compound `CCCCC1(CCCC)CN(c2ccc(OC)cc2)c2cc(F)ccc2S(=O)(=O)C1` [SC-86288] had an IC50 under setting [2] of 320 nM. In other words, the sub-micromolar range.

Compound `CCCCC1(CCCC)CN(c2ccc(OCCOCCOCC[N+](CC)(CC)CC)cc2)c2cc(N(C)C)ccc2S(=O)(=O)C1` [Compound 8, N-[2-[2-[2-[4-[3,3-Dibutyl-7-(dimethylamino)-2,3,4,5-tetrahydro-1,1-dioxido-1,5-benzothiazepin-5-yl]phenoxy]ethoxy]ethoxy]ethoxy]-NNN-triethylaminium Iodide] showed an IC50 under setting [1] of 300 nM.

`CCCCC1(CCCC)CN(c2ccc(OC)cc2)c2cc(N(C)C)ccc2S(=O)(=O)C1` [SC-86287]: the half-maximal inhibitory concentration (IC50) under setting [2] stood at 289 nM.

As for `CCCCC1(CCCC)CN(c2ccc(OCc3ccc(C[N+]45CCN(CC4)CC5)cc3)cc2)c2cc(N(C)C)ccc2S(=O)(=O)C1` [PHA00384640E], under setting [2], the IC50 stood at 31 nM. This IC50 lies about 9.3-fold lower than the previous one.
